Data as given in patent publication US20260285850A1, “SUBSTITUTED OXAZOLIDINONES AND IMIDAZOLINONES AS HERBICIDES” (FMC CORPORATION, priority 2023, published 2026).

Tests used:
Assay type in all cases: in vivo
[1] = test system: sedge, umbrella (small-flower umbrella sedge, Cyperus difformis); assay: Test B flooded paddy test, visual plant response rating 0-100; conditions: 250 g ai/ha, Flood, applied to paddy water, evaluated after 13 days
Procedure, shortened: (§1)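 Paddy-water application: test compounds went directly into water flooded 3 cm above the soil surface, with plants at 2 leaves. After a 13-day greenhouse period, responses were judged by eye relative to controls; a dash marks an untested entry.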

[2] = test system: ducksalad (Heteranthera limosa); assay: as above; conditions: 250 g ai/ha, Flood, applied to paddy water, evaluated after 13 days
Procedure, shortened: as §1

[3] = test system: barnyardgrass (Echinochloa crusgalli); assay: as above; conditions: 250 g ai/ha, Flood, applied to paddy water, evaluated after 13 days
Procedure, shortened: as §1

rice (Oryza sativa) = assay: as above; conditions: 250 g ai/ha, Flood, applied to paddy water, evaluated after 13 days
Procedure, shortened: as §1

[4] = test system: blackgrass (Alopecurus myosuroides); assay: Test A preemergence soil spray, visual injury rating 0-100; conditions: 10 days
Source text: (§2) Seeds of plant species selected from barnyardgrass (Echinochloa crus-galli), blackgrass (Alopecurus myosuroides), corn (Zea mays), foxtail, giant (giant foxtail, Setaria faberi), green foxtail (Setaria viridis), goosegrass (Eleusine indica), kochia (Bassia scoparia), oat, wild (wild oat, Avena fatua), palmer (palmer amaranth, palmer pigweed, Amaranthus palmeri), ragweed (common ragweed, Ambrosia artemisiifolia), ryegrass, Italian (italian ryegrass, Lolium multiflorum), soybean (Glycine max) and wheat (Triticum aestivum) were planted into a blend of loam soil and sand and treated preemergence with a directed soil spray using test chemicals formulated in a non-phytotoxic solvent mixture which included a surfactant.
(§3) At the same time, plants selected from these crops and weed species and also galium (catchweed bedstraw, Galium aparine) and horseweed (Erigeron canadensis) were planted in pots containing the same blend of loam soil and sand and treated with postemergence applications of test chemicals formulated in the same manner. Plants ranged in height from 2 to 10 cm and were in the one- to two-leaf stage for the postemergence treatment. Treated plants and untreated controls were maintained in a greenhouse for 10 days, after which time all treated plants were compared to untreated controls and visually evaluated for injury. Plant response ratings, summarized in Table A, are based on a 0 to 100 scale where 0 is no effect and 100 is complete control. A dash (-) response means no test result.

[5] = test system: ryegrass, Italian (italian ryegrass, Lolium multiflorum); assay: as above; conditions: 10 days
Source text: as §2, §3

kochia (Bassia scoparia) [6] = assay: as above; conditions: 10 days
Source text: as §2, §3

[7] = test system: ragweed (common ragweed, Ambrosia artemisiifolia); assay: as above; conditions: 10 days
Source text: as §2, §3

[8] = test system: palmer (palmer amaranth, palmer pigweed, Amaranthus palmeri); assay: as above; conditions: 10 days
Source text: as §2, §3

soybean (Glycine max) [9] = assay: as above; conditions: 10 days
Source text: as §2, §3

[10] = test system: barnyardgrass (Echinochloa crus-galli); assay: as above; conditions: 10 days
Source text: as §2, §3

corn (Zea mays) [11] = assay: as above; conditions: 10 days
Source text: as §2, §3

[12] = test system: green foxtail (Setaria viridis); assay: as above; conditions: 10 days
Source text: as §2, §3

[13] = test system: oat, wild (wild oat, Avena fatua); assay: as above; conditions: 10 days
Source text: as §2, §3

[14] = test system: wheat (Triticum aestivum); assay: as above; conditions: 10 days
Source text: as §2, §3

[15] = test system: blackgrass (Alopecurus myosuroides); assay: Test A postemergence application, visual injury rating 0-100
Source text: as §2, §3

[16] = test system: ryegrass, Italian (italian ryegrass, Lolium multiflorum); assay: as above
Source text: as §2, §3

kochia (Bassia scoparia) [17] = assay: as above
Source text: as §2, §3

[18] = test system: ragweed (common ragweed, Ambrosia artemisiifolia); assay: as above
Source text: as §2, §3

[19] = test system: palmer (palmer amaranth, palmer pigweed, Amaranthus palmeri); assay: as above
Source text: as §2, §3

soybean (Glycine max) [20] = assay: as above
Source text: as §2, §3

[21] = test system: barnyardgrass (Echinochloa crus-galli); assay: as above
Source text: as §2, §3

corn (Zea mays) [22] = assay: as above
Source text: as §2, §3

[23] = test system: green foxtail (Setaria viridis); assay: as above
Source text: as §2, §3

[24] = test system: horseweed (Erigeron canadensis); assay: as above; conditions: Postemergence, 16 g ai/ha, greenhouse 10 days; 0 no effect, 100 complete control
Source text: as §2, §3

[25] = test system: oat, wild (wild oat, Avena fatua); assay: as above
Source text: as §2, §3

[26] = test system: wheat (Triticum aestivum); assay: as above
Source text: as §2, §3

[27] = 62 g ai/ha, 0 = no effect, 100 = complete control
[28] = 62 g ai/ha, postemergence, 10 days, 0 = no effect, 100 = complete control
[29] = Postemergence, 16 g ai/ha, greenhouse 10 days, 0 no effect, 100 complete control

## CCOC(=O)C1=CCC(NC(=O)C2(C)CN(c3cc(Cl)cc(Cl)c3)C(=O)O2)C1 (stereo not shown) [Compound 113]
[1]
  Plant response rating, Sedge, Umbrella (0 to 100 scale, 0 is no effect and 100 is complete control): 0
[2]
  Plant response rating, Ducksalad (0 to 100 scale, 0 is no effect and 100 is complete control): 0
[3]
  Plant response rating, Barnyardgrass (0 to 100 scale, 0 is no effect and 100 is complete control): 0
Rice (Oryza sativa)
  Plant response rating, Rice (0 to 100 scale, 0 is no effect and 100 is complete control): 0
[4]; 16 g ai/ha, 0 to 100 scale
  Blackgrass plant response rating: 0
[4]; [27]
  Blackgrass plant response rating (0-100): 0
[5]; 16 g ai/ha, 0 to 100 scale
  Ryegrass, Italian plant response rating: 0
[5]; [27]
  Ryegrass, Italian plant response rating (0-100): 0
Kochia (Bassia scoparia) [6]; 16 g ai/ha, 0 to 100 scale
  Kochia plant response rating: 0
Kochia (Bassia scoparia) [6]; [27]
  Kochia plant response rating (0-100): 0
[7]; 16 g ai/ha, 0 to 100 scale
  Ragweed plant response rating: 0
[7]; [27]
  Ragweed plant response rating (0-100): 0
[8]; 16 g ai/ha, 0 to 100 scale
  Pigweed, Palmer plant response rating: 0
[8]; [27]
  Pigweed, Palmer plant response rating (0-100): 20
Soybean (Glycine max) [9]; 16 g ai/ha, 0 to 100 scale
  Soybean plant response rating: 0
Soybean (Glycine max) [9]; [27]
  Soybean plant response rating (0-100): 0
[10]; 16 g ai/ha, 0 to 100 scale
  Barnyardgrass plant response rating: 0
[10]; [27]
  Barnyardgrass plant response rating (0-100): 0
Corn (Zea mays) [11]; 16 g ai/ha, 0 to 100 scale
  Corn plant response rating: 0
Corn (Zea mays) [11]; [27]
  Corn plant response rating (0-100): 0
[12]; 16 g ai/ha, 0 to 100 scale
  Foxtail, Green plant response rating: 0
[12]; [27]
  Foxtail, Green plant response rating (0-100): 0
[13]; 16 g ai/ha, 0 to 100 scale
  Oat, Wild plant response rating: 0
[13]; [27]
  Oat, Wild plant response rating (0-100): 0
[14]; 16 g ai/ha, 0 to 100 scale
  Wheat plant response rating: 0
[14]; [27]
  Wheat plant response rating (0-100): 0
[15]; [28]
  Blackgrass plant response rating (0-100): 20
[15]; [29]
  Blackgrass plant response rating (0 to 100 scale): 0
[16]; [28]
  Ryegrass, Italian plant response rating (0-100): 0
[16]; [29]
  Ryegrass, Italian plant response rating (0 to 100 scale): 0
Kochia (Bassia scoparia) [17]; [28]
  Kochia plant response rating (0-100): 0
Kochia (Bassia scoparia) [17]; [29]
  Kochia plant response rating (0 to 100 scale): 0
[18]; [28]
  Ragweed plant response rating (0-100): 30
[18]; [29]
  Ragweed plant response rating (0 to 100 scale): 0
[19]; [28]
  Pigweed, Palmer plant response rating (0-100): 10
[19]; [29]
  Pigweed, Palmer plant response rating (0 to 100 scale): 0
Soybean (Glycine max) [20]; [28]
  Soybean plant response rating (0-100): 0
Soybean (Glycine max) [20]; [29]
  Soybean plant response rating (0 to 100 scale): 0
[21]; [28]
  Barnyardgrass plant response rating (0-100): 10
[21]; [29]
  Barnyardgrass plant response rating (0 to 100 scale): 0
Corn (Zea mays) [22]; [28]
  Corn plant response rating (0-100): 20
Corn (Zea mays) [22]; [29]
  Corn plant response rating (0 to 100 scale): 0
[23]; [28]
  Foxtail, Green plant response rating (0-100): 20
[23]; [29]
  Foxtail, Green plant response rating (0 to 100 scale): 0
[24]
  Horseweed plant response rating (0 to 100 scale): 0
[25]; [28]
  Oat, Wild plant response rating (0-100): 0
[25]; [29]
  Oat, Wild plant response rating (0 to 100 scale): 0
[26]; [28]
  Wheat plant response rating (0-100): 0
[26]; [29]
  Wheat plant response rating (0 to 100 scale): 0
